Data: the NIST ThermoML archive (doi:10.1021/je800925v)

Assay: xn = mol fraction of the nth substance listed
Conditions: Liquid

CCCCCC [hexane] + CCO
Conditions	mass density [kg/m3]	viscosity [mPa·s]
273.15 K, x2 = 0.101	688.8	0.3638
273.15 K, x2 = 0.198	694.5	0.4
273.15 K, x2 = 0.302	702	0.4511
273.15 K, x2 = 0.401	712.1	0.5478
273.15 K, x2 = 0.496	721.4	0.6415
273.15 K, x2 = 0.6	732.7	0.77
273.15 K, x2 = 0.701	744.1	0.8963
273.15 K, x2 = 0.793	760.4	1.096
273.15 K, x2 = 0.901	781.1	1.377
275.65 K, x2 = 0.101	686.5	0.3563
275.65 K, x2 = 0.198	692.3	0.3904
275.65 K, x2 = 0.302	699.7	0.4388
275.65 K, x2 = 0.401	709.8	0.5294
275.65 K, x2 = 0.496	719.2	0.6182
275.65 K, x2 = 0.6	730.5	0.7386
275.65 K, x2 = 0.701	741.9	0.8583
275.65 K, x2 = 0.793	758.3	1.047
275.65 K, x2 = 0.901	779	1.311
278.15 K, x2 = 0.101	684.3	0.3492
278.15 K, x2 = 0.198	690	0.3812
278.15 K, x2 = 0.302	697.5	0.4269
278.15 K, x2 = 0.401	707.6	0.5119
278.15 K, x2 = 0.496	716.9	0.5956
278.15 K, x2 = 0.6	728.3	0.709
278.15 K, x2 = 0.701	739.7	0.8224
278.15 K, x2 = 0.793	756.1	1
278.15 K, x2 = 0.901	776.8	1.25
280.65 K, x2 = 0.101	682	0.3422
280.65 K, x2 = 0.198	687.8	0.3722
280.65 K, x2 = 0.302	695.2	0.4154
280.65 K, x2 = 0.401	704.9	0.4927
280.65 K, x2 = 0.496	714.7	0.5741
280.65 K, x2 = 0.6	726.1	0.6809
280.65 K, x2 = 0.701	737.4	0.7884
280.65 K, x2 = 0.793	753.9	0.9561
280.65 K, x2 = 0.901	774.7	1.191
283.15 K, x2 = 0.101	679.8	0.3352
283.15 K, x2 = 0.198	685.5	0.3635
283.15 K, x2 = 0.302	692.9	0.4042
283.15 K, x2 = 0.401	702.7	0.4766
283.15 K, x2 = 0.496	712.4	0.5537
283.15 K, x2 = 0.6	723.8	0.6543
283.15 K, x2 = 0.701	735.2	0.7562
283.15 K, x2 = 0.793	751.7	0.9147
283.15 K, x2 = 0.901	772.5	1.136
285.65 K, x2 = 0.101	677.5	0.3283
285.65 K, x2 = 0.198	683.2	0.3549
285.65 K, x2 = 0.302	690.6	0.3934
285.65 K, x2 = 0.401	700.4	0.4614
285.65 K, x2 = 0.496	710.1	0.5343
285.65 K, x2 = 0.6	721.5	0.629
285.65 K, x2 = 0.701	733	0.7257
285.65 K, x2 = 0.793	749.5	0.8754
285.65 K, x2 = 0.901	770.4	1.085
288.15 K, x2 = 0.101	675.2	0.3215
288.15 K, x2 = 0.198	680.9	0.346
288.15 K, x2 = 0.302	688.3	0.383
288.15 K, x2 = 0.401	698.1	0.4239
288.15 K, x2 = 0.496	707.9	0.5159
288.15 K, x2 = 0.6	719.3	0.6052
288.15 K, x2 = 0.701	730.8	0.6967
288.15 K, x2 = 0.793	747.3	0.8384
288.15 K, x2 = 0.901	768.2	1.036
290.65 K, x2 = 0.101	672.8	0.3147
290.65 K, x2 = 0.198	678.6	0.3366
290.65 K, x2 = 0.302	686	0.3728
290.65 K, x2 = 0.401	695.8	0.433
290.65 K, x2 = 0.496	705.5	0.498
290.65 K, x2 = 0.6	717	0.5822
290.65 K, x2 = 0.701	728.5	0.6691
290.65 K, x2 = 0.793	745.1	0.8031
290.65 K, x2 = 0.901	766	0.9898
293.15 K, x2 = 0	659.8	0.2979
293.15 K, x2 = 0.101	670.5	0.308
293.15 K, x2 = 0.198	676.2	0.3264
293.15 K, x2 = 0.302	683.7	0.3597
293.15 K, x2 = 0.401	693.5	0.3995
293.15 K, x2 = 0.496	703.2	0.4493
293.15 K, x2 = 0.6	714.7	0.5606
293.15 K, x2 = 0.701	726.2	0.643
293.15 K, x2 = 0.793	742.8	0.7696
293.15 K, x2 = 0.901	763.9	0.9463
295.65 K, x2 = 0.101	668.2	0.3016
295.65 K, x2 = 0.198	673.9	0.3161
295.65 K, x2 = 0.302	681.4	0.3499
295.65 K, x2 = 0.401	691.1	0.3949
295.65 K, x2 = 0.496	700.9	0.4437
295.65 K, x2 = 0.6	712.4	0.5401
295.65 K, x2 = 0.701	724	0.6182
295.65 K, x2 = 0.793	740.6	0.7377
295.65 K, x2 = 0.901	761.7	0.9052
298.15 K, x2 = 0	655.3	0.2865
298.15 K, x2 = 0.101	665.9	0.2953
298.15 K, x2 = 0.198	671.5	0.3049
298.15 K, x2 = 0.302	679	0.3398
298.15 K, x2 = 0.401	688.8	0.3755
298.15 K, x2 = 0.496	–	0.4288
298.15 K, x2 = 0.6	710.1	0.5021
298.15 K, x2 = 0.701	721.7	0.5944
298.15 K, x2 = 0.793	738.3	0.7071
298.15 K, x2 = 0.901	759.5	0.8663
